Measured values published in patent US20230092389A1, “UNIT DOSES, AEROSOLS, KITS, AND METHODS FOR TREATING HEART CONDITIONS BY PULMONARY ADMINISTRATION” (InCarda Therapeutics, Inc., priority 2017, published 2023).
Read-outs that look alike come from different tables or passages of the source. One block for each compound: values may come before it.

Assays:
[1] = test system: dogs with induced supraventricular tachycardia; assay: Induced supraventricular tachycardia (SVT) model, IT vs IV, anesthetized dogs (Example 2); format: in vivo, dog; conditions: for cardiovascular effect when given by intratracheal instillation: summary of Example 2
Procedure: Supraventricular Tachycardia Model:
A venous catheter was placed in a peripheral vessel (i.e., cephalic) for administration of anesthetic(s). For anesthesia induction, all animals were given a combination of diazepam (˜0.5 mg/kg) and ketamine (˜10 mg/kg) intravenously through this venous catheter. Anesthesia was sustained until completion of the study with an intravenous infusion of pentobarbital (5-15 mg/kg/hr). Following induction, animals were endotracheally intubated and mechanically ventilated (˜12 breaths/min with a tidal volume of 200-300 mL).
Subsequently, a cut-down on a jugular vein permitted the introduction of a pacing lead into the right atrium. Similarly, for arterial pressure monitoring, a solid-state micromanometer catheter (Millar Instruments) was advanced into the aortic root via a cut-down over an artery (e.g., femoral, carotid). Transthoracic electrodes forming ECG lead II was placed. For vehicle/test article delivery, a 4F catheter was introduced through the trachea and wedged into a small airway, and a venous catheter was placed in a peripheral vessel (i.e., cephalic).
Following instrumentation/hemodynamic stabilization (for at least 15 minutes), right atrial pacing (5-10 V, 40 Hz, 2 ms pulses) was established in order to induce supraventricular tachycardia (SVT); pacing and SVT was sustained throughout the duration of the experiments. Approximately 5 minutes after onset of SVT and while monitoring ECG/arterial pressure continuously, the animals were administered three escalating doses (one at a time) of a test article; each dose was delivered as a bolus (˜3 mL) directly into a small airway through the intratracheal catheter (IT). Following dosing, the heart-rate (HR) and arterial pressure response were monitored for 15 minutes.
Subsequently (once the response to three IT doses had been recorded), hemodynamic recovery was allowed for approximately 30 minutes, and the electrocardiographic/hemodynamic response to the highest test-article dose was re-evaluated; however, for comparison purposes, this dose was delivered intravenously (IV).
Overall, two groups/test-articles were studied, and up to two animals were assigned to each group (n=2/group): one group received esmolol HCL (0.5-1.0 mg/kg, ESM), while the other received adenosine (0.25-1.0 mg/kg, ADN); only one test article was administered to per animal.

[2] = test system: dogs with induced atrial fibrillation; format: in vivo, dog; conditions: for cardiovascular effect when given by intratracheal instillation: summary of Example 2; for conversion of induced atrial fibrillation to normal sinus rhythm: pulmonary dose 0.25 mg/kg body weight
Procedure: Atrial Fibrillation Model: A venous catheter was placed in a peripheral vessel (i.e., cephalic) for administration of anesthetic. […] Following induction, animals were endotracheally intubated and mechanically ventilated (˜12 breaths/minute with a tidal volume of 200-300 mL). Subsequently, a cut-down on a jugular vein permitted introduction of a pacing lead into the right atrium. Transthoracic electrodes forming ECG lead II were placed. For test/vehicle article delivery, a 4F catheter was introduced through the trachea and wedged into a small airway, and a venous catheter was placed in a peripheral vessel (i.e., cephalic). […] Approximately 5 min after administration of this parasympathomimetic was started; the following experiments were performed: […] Observations were made for up to 10 minutes. […] Vehicle was only water.

physchem = conditions: water

drop in MAP ([1]; via the lung, any of the doses): did not cause a drop in MAP
Compound: COC(=O)CCc1ccc(OCC(O)CNC(C)C)cc1 (stereo not shown) [esmolol]
AV block ([1]; 0.5 mg/kg via the lung (FIGS. 17, 18)): period of AV block induced
AV block ([1]; 0.75 mg/kg via the lung (FIG. 20)): period of AV block induced
PR intervals in the ECG traces ([1]; elevating doses, IT): prolonging the PR intervals
electrophysiological effects ([1]; higher dose 1.0 mg/kg): did not produce the same electrophysiological effects
AV block ([1]; lower doses, via the lung (IT)): 2nd degree AV block
cardiovascular effect when given by intratracheal instillation [1]: probable effect

Compound: Nc1ncnc2c1ncn2[C@@H]1O[C@H](CO)[C@@H](O)[C@H]1O [adenosine]
effect on the heart ([1]; administered via the lung): did not have any effect on the heart
cardiovascular effect when given by intratracheal instillation [1]: clear response was not observed

Compound: CN(CCOc1ccc(NS(C)(=O)=O)cc1)CCc1ccc(NS(C)(=O)=O)cc1 [dofetilide]
heart rate ([2]; escalating pulmonary doses of 10-40 mcg/kg body weight): minor reduction in heart rate
effect on induced atrial fibrillation ([2]; pulmonary (IT) administration): marginally slowed the ventricular rate
cardiovascular effect when given by intratracheal instillation [2]: probable effect

Mean Arterial Pressure (MAP) ([1]; dog, in vivo, iv, 0.25 mg/kg): dropped significantly in both cases
solubility (physchem): > 90 mg/mL
pH of solution in water (3.5 mg/mL solution): 6.7
appearance of solution (diltiazem hydrochloride 50 mg/ml, flecainide acetate 30 mg/ml in distilled water): clear with no visible particulate matter
Compound: COc1ccc([C@@H]2Sc3ccccc3N(CCN(C)C)C(=O)[C@@H]2OC(C)=O)cc1 [diltiazem]
comparison of pulmonary and IV routes ([1]; 0.25 mg/kg (FIGS. 14, 15)): comparable in all aspects
PR interval ([1]; IV or pulmonary, 0.25 mg/kg): prolonged the PR interval
timing of the electrophysiological change ([1]; IV vs pulmonary): comparable between IV and pulmonary
mean arterial blood pressure (MAP) ([2]; dog, in vivo, 0.25 mg/kg): notable drop
PQ interval ([2]; pulmonary dose 0.25 mg/kg): prolonged the PQ interval
heart rate ([2]; pulmonary dose 0.25 mg/kg): slowed down but marginally
conversion of induced atrial fibrillation to normal sinus rhythm ([2]; 0.25 mg/kg): converted the induced atrial fibrillation to normal sinus rhythm
conversion of induced atrial fibrillation to normal sinus rhythm ([2]; listed as diltiazem HCl, 0.25 mg/kg): Afib converting after administration
cardiovascular effect when given by intratracheal instillation [2]: clear cardiovascular effect
